Measured values: patent US8754242B2, “Herbicides” (Syngenta Crop Protection LLC, priority 2007, dated 2014)

Legend:
Type in all cases: in vivo
[1] = tested on: Alopecurus myosuroides (ALOMY); experiment: Test Example 1 post-emergence herbicidal activity; details: 360 h, rate 125 g/ha, evaluated 15 days later, read-out: Post-emergence activity ALOMY (100=total damage to plant; 0=no damage to plant)
Procedure, shortened: (§1)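 Greenhouse pot test; spray application pre-emergence (1 d after sowing) or post-emergence (10 d growth). Rating 0–100% damage; pre read at 20 d, post at 15 d.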

Setaria faberi (SETFA) [2] = experiment: Test Example 1 post-emergence herbicidal activity; details: 360 h, rate 125 g/ha, evaluated 15 days later, read-out: Post-emergence activity SETFA (100=total damage to plant; 0=no damage to plant)
Procedure, shortened: as §1

[3] = tested on: Echinochloa crus-galli (ECHCG); experiment: Test Example 1 post-emergence herbicidal activity; details: 360 h, rate 125 g/ha, evaluated 15 days later, read-out: Post-emergence activity ECHCG (100=total damage to plant; 0=no damage to plant)
Procedure, shortened: as §1

Lolium perenne (LOLPE) [4] = experiment: Test Example 1 post-emergence herbicidal activity; details: 360 h, rate 125 g/ha, evaluated 15 days later, read-out: Post-emergence activity LOLPE (100=total damage to plant; 0=no damage to plant)
Procedure, shortened: as §1

Avena fatua (AVEFA) [5] = experiment: Test Example 1 post-emergence herbicidal activity; details: 360 h, rate 125 g/ha, evaluated 15 days later, read-out: Post-emergence activity AVEFA (100=total damage to plant; 0=no damage to plant)
Procedure, shortened: as §1

[6] = tested on: Digitaria sanguinalis (DIGSA); experiment: Test Example 1 post-emergence herbicidal activity; details: rate 125 g/ha, evaluated 15 days later; for pest or weed control at 125 g/ha: 360 h, read-out: Post-emergence activity DIGSA (100=total damage to plant; 0=no damage to plant)
Procedure, shortened: as §1

[7] = tested on: Alopecurus myosuroides (ALOMY); experiment: Test Example 1 pre-emergence herbicidal activity; details: Alopecurus myosuroides, 480 h, rate 250 g/ha, evaluated 20 days later, read-out: Pre-emergence activity ALOMY (100=total damage to plant; 0=no damage to plant)
Procedure, shortened: as §1

Setaria faberi (SETFA) [8] = experiment: Test Example 1 pre-emergence herbicidal activity; details: Setaria faberi, 480 h, rate 250 g/ha, evaluated 20 days later, read-out: Pre-emergence activity SETFA (100=total damage to plant; 0=no damage to plant)
Procedure, shortened: as §1

[9] = tested on: Echinochloa crus-galli (ECHCG); experiment: Test Example 1 pre-emergence herbicidal activity; details: Echinochloa crus-galli, 480 h, rate 250 g/ha, evaluated 20 days later, read-out: Pre-emergence activity ECHCG (100=total damage to plant; 0=no damage to plant)
Procedure, shortened: as §1

Lolium perenne (LOLPE) [10] = experiment: Test Example 1 pre-emergence herbicidal activity; details: Lolium perenne, 480 h, rate 250 g/ha, evaluated 20 days later, read-out: Pre-emergence activity LOLPE (100=total damage to plant; 0=no damage to plant)
Procedure, shortened: as §1

Avena fatua (AVEFA) [11] = experiment: Test Example 1 pre-emergence herbicidal activity; details: rate 250 g/ha, evaluated 20 days later; for pest or weed control at 250 g/ha: Avena fatua, 480 h, read-out: Pre-emergence activity AVEFA (100=total damage to plant; 0=no damage to plant)
Procedure, shortened: as §1

[12] = tested on: Digitaria sanguinalis (DIGSA); experiment: Test Example 1 pre-emergence herbicidal activity; details: Digitaria sanguinalis, 480 h, rate 250 g/ha, evaluated 20 days later, read-out: Pre-emergence activity DIGSA (100=total damage to plant; 0=no damage to plant)
Procedure, shortened: as §1

`CCc1cc(C)cc(C)c1C1=C(O)[C@H]2[C@@H](C1=O)[C@@H]1CC[C@H]2O1` [Example T2] showed a pest or weed control at 125 g/ha [1] of 100%, a pest or weed control at 125 g/ha (Setaria faberi (SETFA) [2]) of 80% and a pest or weed control at 125 g/ha [3] of 100%. It also gave a pest or weed control at 125 g/ha (Lolium perenne (LOLPE) [4]) of 100%, a pest or weed control at 125 g/ha (Avena fatua (AVEFA) [5]) of 90% and a pest or weed control at 125 g/ha [6] of 100%. It also gave a pest or weed control at 250 g/ha [7] of 100%, a pest or weed control at 250 g/ha (Setaria faberi (SETFA) [8]) of 90% and a pest or weed control at 250 g/ha [9] of 100%. For the same compound, the pest or weed control at 250 g/ha (Lolium perenne (LOLPE) [10]) was 100%, the pest or weed control at 250 g/ha (Avena fatua (AVEFA) [11]) was 100% and the pest or weed control at 250 g/ha [12] was 100%.

`CCc1cc(C)cc(CC)c1C1=C(O)[C@H]2[C@@H](C1=O)[C@@H]1C=C[C@H]2O1` [Example T4] was tested, and the pest or weed control at 125 g/ha [1] was 80%, the pest or weed control at 125 g/ha (Setaria faberi (SETFA) [2]) was 80% and the pest or weed control at 125 g/ha [3] was 100%. For the same compound, the pest or weed control at 125 g/ha (Lolium perenne (LOLPE) [4]) was 90%, the pest or weed control at 125 g/ha (Avena fatua (AVEFA) [5]) was 90% and the pest or weed control at 125 g/ha [6] was 80%. For the same compound, the pest or weed control at 250 g/ha [7] was 90%, the pest or weed control at 250 g/ha (Setaria faberi (SETFA) [8]) was 90% and the pest or weed control at 250 g/ha [9] was 100%. The pest or weed control at 250 g/ha (Lolium perenne (LOLPE) [10]) was 100%, the pest or weed control at 250 g/ha (Avena fatua (AVEFA) [11]) was 90% and the pest or weed control at 250 g/ha [12] was 100%.

`CCc1cc(CC)c(C2=C(O)[C@H]3[C@@H](C2=O)[C@@H]2CC[C@H]3O2)c(CC)c1` [Example T5] showed a pest or weed control at 125 g/ha [1] of 70%, a pest or weed control at 125 g/ha (Setaria faberi (SETFA) [2]) of 90% and a pest or weed control at 125 g/ha [3] of 100%. The pest or weed control at 125 g/ha (Lolium perenne (LOLPE) [4]) was 80%, the pest or weed control at 125 g/ha (Avena fatua (AVEFA) [5]) was 70% and the pest or weed control at 125 g/ha [6] was 100%. For the same compound, the pest or weed control at 250 g/ha [7] was 100%, the pest or weed control at 250 g/ha (Setaria faberi (SETFA) [8]) was 80% and the pest or weed control at 250 g/ha [9] was 100%. It also gave a pest or weed control at 250 g/ha (Lolium perenne (LOLPE) [10]) of 100%, a pest or weed control at 250 g/ha (Avena fatua (AVEFA) [11]) of 80% and a pest or weed control at 250 g/ha [12] of 100%.

`Cc1cc(C)c(C2=C(O)[C@H]3[C@@H](C2=O)[C@]2(C)CC[C@@]3(C)O2)c(C)c1` [Example T6] showed a pest or weed control at 125 g/ha [1] of 80%, a pest or weed control at 125 g/ha (Setaria faberi (SETFA) [2]) of 80% and a pest or weed control at 125 g/ha [3] of 90%. The pest or weed control at 125 g/ha (Lolium perenne (LOLPE) [4]) was 80%, the pest or weed control at 125 g/ha (Avena fatua (AVEFA) [5]) was 80% and the pest or weed control at 125 g/ha [6] was 90%. It also gave a pest or weed control at 250 g/ha [7] of 80%, a pest or weed control at 250 g/ha (Setaria faberi (SETFA) [8]) of 80% and a pest or weed control at 250 g/ha [9] of 90%. The pest or weed control at 250 g/ha (Lolium perenne (LOLPE) [10]) was 100%, the pest or weed control at 250 g/ha (Avena fatua (AVEFA) [11]) was 30% and the pest or weed control at 250 g/ha [12] was 90%.

`CCc1cc(C)cc(CC)c1C1=C(O)[C@H]2[C@@H](C1=O)[C@]1(C)CC[C@@]2(C)O1` [Example T7] showed a pest or weed control at 125 g/ha [1] of 100%, a pest or weed control at 125 g/ha (Setaria faberi (SETFA) [2]) of 90% and a pest or weed control at 125 g/ha [3] of 90%. It also gave a pest or weed control at 125 g/ha (Lolium perenne (LOLPE) [4]) of 90%, a pest or weed control at 125 g/ha (Avena fatua (AVEFA) [5]) of 90% and a pest or weed control at 125 g/ha [6] of 70%. For the same compound, the pest or weed control at 250 g/ha [7] was 100%, the pest or weed control at 250 g/ha (Setaria faberi (SETFA) [8]) was 90% and the pest or weed control at 250 g/ha [9] was 90%. The pest or weed control at 250 g/ha (Lolium perenne (LOLPE) [10]) was 100%, the pest or weed control at 250 g/ha (Avena fatua (AVEFA) [11]) was 80% and the pest or weed control at 250 g/ha [12] was 80%.

Compound `CCc1cc(C)cc(CC)c1C1=C(O)[C@H]2[C@@H](C1=O)[C@@H]1CC[C@@]2(C)O1` [Example T8] has a pest or weed control at 125 g/ha [1] of 100%, a pest or weed control at 125 g/ha (Setaria faberi (SETFA) [2]) of 100% and a pest or weed control at 125 g/ha [3] of 100%. The pest or weed control at 125 g/ha (Lolium perenne (LOLPE) [4]) was 100%, the pest or weed control at 125 g/ha (Avena fatua (AVEFA) [5]) was 100% and the pest or weed control at 125 g/ha [6] was 100%. For the same compound, the pest or weed control at 250 g/ha [7] was 100%, the pest or weed control at 250 g/ha (Setaria faberi (SETFA) [8]) was 100% and the pest or weed control at 250 g/ha [9] was 100%. It also gave a pest or weed control at 250 g/ha (Lolium perenne (LOLPE) [10]) of 100%, a pest or weed control at 250 g/ha (Avena fatua (AVEFA) [11]) of 90% and a pest or weed control at 250 g/ha [12] of 100%.

For `CCc1cc(C)cc(CC)c1C1=C(O)[C@H]2[C@@H](C1=O)[C@@H]1CC[C@H]2O1` [Example T10], the pest or weed control at 125 g/ha [1] was 70%, the pest or weed control at 125 g/ha (Setaria faberi (SETFA) [2]) was 80% and the pest or weed control at 125 g/ha [3] was 80%. The pest or weed control at 125 g/ha (Lolium perenne (LOLPE) [4]) was 80%, the pest or weed control at 125 g/ha (Avena fatua (AVEFA) [5]) was 70% and the “Post-emergence activity DIGSA (100=total damage to plant; 0=no damage to plant)” value [6] was 50. The pest or weed control at 250 g/ha [7] was 80%, the pest or weed control at 250 g/ha (Setaria faberi (SETFA) [8]) was 80% and the pest or weed control at 250 g/ha [9] was 90%. The pest or weed control at 250 g/ha (Lolium perenne (LOLPE) [10]) was 100%, the “Pre-emergence activity AVEFA (100=total damage to plant; 0=no damage to plant)” value (Avena fatua (AVEFA) [11]) was 70 and the pest or weed control at 250 g/ha [12] was 80%.
